“And” between values parts separate entries of the source, which are not always exact repeats. Equal entries are not always repeated. Where two headings read alike, the source gives them in different places.
Columns and labels:
E. coli JMI 109 = experiment: MIC assay (CLSI broth microdilution; checkerboard with rifampin); format: cell-based, Escherichia coli; settings: in combination with rifampin (0.25 µg/mL), duplicate checkerboard assays; polymyxin-nonsusceptible strain
Procedure: (§1) Synergy studies were performed by using polymyxin derivatives in combination with rifampin, a model compound for such antibacterial agents that the intact outer membrane of Gram-negative bacteria acts as a permeability barrier.

K. pneumoniae JMI 27068 = experiment: as above; format: cell-based, Klebsiella pneumoniae; settings: in combination with rifampin (0.25 µg/mL), duplicate checkerboard assays; polymyxin-nonsusceptible strain
Procedure: as §1

[1] = 7-day intravenous toxicity (nephrotoxicity) study in cynomolgus monkeys; settings: IV infusion TID; for animals euthanized due to severe nephrotoxic effects: seven days, 3 animals per group
Procedure: In vivo toxicity and toxicokinetic studies were performed by using cynomolgus monkeys. The laboratory that performed the animal studies is accredited by the Association for Assessment and Accreditation of Laboratory Animal Care (AAALAC), has an Animal Welfare Assurance issued by the Office of Laboratory Animal Welfare (OLAW), is registered with the United States Department of Agriculture (USDA), and has an Institutional Animal Care and Use Committee (IACUC) responsible for compliance with applicable laws and regulations concerning the humane care and use of laboratory animals.
Naive female cynomolgus monkeys were acclimatized to study room for 28 days during which each animal was implanted with a permanent indwelling femoral catheter to permit continuous intravenous infusions. The animals were allowed surgical recovery period of at least 2 weeks before initiating dosing.
Polymyxin B sulfate was from Sigma-Aldrich (catalogue number P0972, lot number BCBF8382V). On each day of use, appropriate quantities of NAB739, NAB815 or polymyxin B were weighed and dissolved in appropriate volumes of sterile saline to prepare a stock solution for each test article and positive control. A correction factor was used in the stock solution preparation to account for both the purity and sulfate content in each test article. Accordingly, the dose (such as 36 mg/kg/d) refers to the dose of the pure peptide as its free base form, not as its sulfate salt.
The doses were the following: polymyxin B 18 mg/kg/d (Group 1), polymyxin B 24 mg/kg/d (Group 2), NAB739 24 mg/kg/d (Group 3), NAB739 36 mg/kg/d (Group 4), NAB815 24 mg/kg/d (Group 5), NAB815 36 mg/kg/d (Group 6). Three animals were included in each study groups.
(§2) For seven days, the animals were dosed by intravenous (IV) infusion three times daily (TID) at a dose volume of 10 mL/kg for 1 hour (± 10 minutes), 8 ± 0.5 hours apart. The day of initial dose administration was designated study Day 1, with subsequent days consecutively numbered. Days prior to the initial dose administration were consecutively numbered with the final day of acclimation referenced as Day -1.
(§3) The following parameters were evaluated at designed intervals: clinical observations, body weights, clinical pathology (hematology, coagulation, serum chemistry, urinalysis including urine sediments and urine chemistry), toxi-cokinetics (plasma and urine) and anatomic pathology (kidney). In cases of animals sacrificed on an unscheduled basis, samples were taken on the day of the sacrifice.
On the day of necropsy, animals were sedated with ketamine, weighed, and anesthetized with an intravenous injection of a commercial pentobarbital and phenytoin solution, followed by exsanguinations.
At necropsy, gross observations and organ weights were recorded, and specific tissues were collected. Histopathology was conducted on sections of kidney stained with hematoxylin and eosin (H&E).
The figures also show Urine N-acetyl-β-D-glucosaminidase/urine creatinine ratio (U-NAG/Crea; Fig. 3) and Urine Gamma Glutamyltransferase/urine creatinine ratio (U-GGT/Crea; Fig. 4), both urine biomarkers for kidney injury, in those animals. S-Crea and U-Crea were measured by using an Olympus Analyzer (OA) and the modified Jaffe method, S-BUN by using OA and urease/L-glutamate dehydrogenase. U-NAG was measured by using OA/enzymatic, and U-GGT by using OA and glutamyl-carboxy-p-nitroanilide IFCC.
The presence of the following nephropathological parameters was recorded in each animal: tubular basophilia (regeneration), tubular degeneration/necrosis, infiltration (by mononuclear and/or mixed inflammatory cells), tubular dilatation, and tubular casts.

[2] = Toxicokinetics (plasma and urine levels by LC-MS/MS) in cynomolgus monkeys
Procedure: as §2, §3
Plasma and urine concentrations for toxicokinetic (TK) studies were determined by using liquid chromatograph interfaced with a mass spectrometer after precipitation of proteins. A sample (100 µL) was mixed with internal standard solution in water:formic acid (99:1 v/v; […]). Then, 600µL of 100:1 acetonitrile:formic acid was added. The plates were centrifuged at 3200 rpm for 5 minutes. Using a Tomtec Quadra96, a 450 µL aliquot was transferred to a new 96-well plate and dried under nitrogen at 40°C. Then, 200 µL of water:methanol:formic acid (85:15:1 1 v/v) was added and the plate sealed for LC-MS/MS injection. LC-MS system consisted of Waters Acquity liquid chromatograph interfaced with a Thermo Scientific TSQ Quantitative triple quadrupole MS with ionization in the positive ion mode. Each sample (20 µL) was injected onto a Waters Acquity BEH Shield RP18 column (2.1 x 50 mm; 1.7 µm) equilibrated at 50°C. Mobile Phase A was 85:15:1 v/v water:methanol:formic acid. Mobile Phase B was 50:50:1 v/v acetonitrile:methanol:formic acid.
Peak area ratios from the calibration standard responses were regressed using a (1/concentration^2) linear fit for polymyxin B using colistin as the internal standard. For NAB739 and NAB815, peak areas from the calibration standard responses were regressed using a (1/concentration^2) quadratic fit (without the use of an internal standard).
Toxicokinetic analysis was performed by using WinNonlin Phoenix version 6.3 software (Pharsight, Cary, NC). For plasma TK, noncompartmental IV infusion model was used.
The data is from the cynomolgus monkey studies described in the Example 3, where the peptides were administered as a 1-hour intravenous infusion thrice a day. The plasma and urine levels of the peptides were determined as in Example 3.

[3] = dogs; cited from earlier work
[4] = monkeys; cited from earlier work
[5] = patients, in selected materials; cited from earlier work
[6] = the six animals at 18 mg/kg/d and 24 mg/kg/d

Polymyxin B
MIC (E. coli JMI 109): 0.5 to 1 µg/mL | MIC (K. pneumoniae JMI 27068): 1 µg/mL | animals euthanized due to severe nephrotoxic effects ([1]; 18 mg/kg/d): all the three animals | animals euthanized due to severe nephrotoxic effects ([1]; 24 mg/kg/d): Two animals | S-BUN, S-Crea and U-GGT/Crea [1, 6]: remarkably increased | U-NAG/Crea [1, 6]: remarkably increased in five of the animals | concentration in the urine ([2]; after infusion at 8 mg/kg, highest found either in the 0-4 h or 4-8 h sample, given for each animal, 8 mg/kg): 7000 ng/mL and 9000 ng/mL and 15000 ng/mL | 0-8 h recovery in urine ([2]; after the infusion of 8 mg/kg, percentages given for each animal, 8 mg/kg): 1 % of the dose and 2 % of the dose (2×) | Area under the concentration-time from time 0 h to 8 h (AUCs 0-8h) ([2]; plasma, after the infusion of 8 mg/kg, day 1): 112 (SD=5) hr*µg/mL | S-Crea and BUN response [3]: elicited a rapid onset of S-Crea and BUN response | S-Crea and BUN response [4]: elicited a rapid onset of S-Crea and BUN response | nephrotoxicity rate [5]: ≤ 55%

Reference: patent publication EP3045469A1, “POLYMYXIN DERIVATIVE AND USES THEREOF” (priority 2015, dated 2016)
